# Target: human P2X3 receptor (Homo sapiens (Human), UniProt P56373)
# Test: Evaluation of human P2X3 receptor inhibitory activity (Fluo-3 calcium fluorescence, FDSS 3000, ATP stimulation);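 also: stimulus was 50 nM ATP with fluorescence followed for 3 min, and the response per well was peak post-ATP fluorescence divided by the reading at measurement start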
# Assay type: cell-based
# [1] = C6BU-1 cells stably expressing human P2X3 receptor, Fluo-3 fluorescence, FDSS 3000
# [2] = C6BU-1 cells stably expressing human P2X3 receptor
# [3] = human P2X3 receptor, Test Example 1
# Sequence of human P2X3 receptor (P56373 whole entry): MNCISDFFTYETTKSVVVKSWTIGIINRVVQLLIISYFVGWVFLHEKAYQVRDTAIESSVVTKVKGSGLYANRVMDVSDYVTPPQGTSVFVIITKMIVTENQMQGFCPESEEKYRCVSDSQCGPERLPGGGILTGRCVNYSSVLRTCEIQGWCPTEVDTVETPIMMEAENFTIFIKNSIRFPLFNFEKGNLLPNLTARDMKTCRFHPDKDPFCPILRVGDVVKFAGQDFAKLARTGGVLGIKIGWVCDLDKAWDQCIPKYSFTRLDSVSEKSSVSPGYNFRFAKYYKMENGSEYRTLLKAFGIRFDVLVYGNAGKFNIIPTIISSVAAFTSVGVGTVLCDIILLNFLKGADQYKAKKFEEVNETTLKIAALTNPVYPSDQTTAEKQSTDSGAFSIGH
SMILES,IC50 [2],IC50 [3],other results
Cc1cc2cc(/N=c3\[nH]c(=O)n([C@@H](C)[C@@H](C)C(=O)O)c(=O)n3Cc3ccc(Cl)cc3)cc(Cl)c2o1 [Compound I-1588],–,–,IC50 [1]: 0.067 µM
Cc1ccc(Cn2c(=O)n(CCCC(=O)O)c(=O)[nH]/c2=N\c2ccc(Oc3ccc(C)nc3)cc2)cc1 [Compound I-1395],0.023 µM,–,–
Cc1ccc2cc(/N=c3\[nH]c(=O)n([C@@H](C)[C@@H](C)C(=O)O)c(=O)n3Cc3ccc(Cl)cc3)ccc2n1 [Compound I-1350],0.028 µM,–,–
CC(C)(Cn1c(=O)[nH]/c(=N\c2ccc(OCC3CC3)cc2)n(Cc2ccc(Cl)cc2)c1=O)C(=O)O [Compound I-1263],0.025 µM,–,–
O=c1[nH]/c(=N\c2ccc(Oc3ccsn3)cc2)n(Cc2ccc(Cl)cc2)c(=O)n1C[C@H](O)CO [Compound I-2530],–,0.016 µM,–
CCn1c(=O)[nH]/c(=N\c2ccc(Oc3cccc(C#N)n3)c(OC)c2)n(Cc2ccc(Cl)cc2)c1=O [Compound I-2387],–,0.002 µM,–
CNC(=O)Cn1c(=O)[nH]/c(=N\c2ccc(Oc3ccon3)c(F)c2)n(Cc2ccc(Cl)cc2)c1=O [Compound I-2587],–,0.007 µM,–
CCn1c(=O)[nH]/c(=N\c2ccc(Oc3cncc(C(=O)O)c3)cc2)n(Cc2ccc(Cl)cc2)c1=O [Compound I-1885],–,–,IC50 [1]: 0.007 µM
COc1cc(/N=c2\[nH]c(=O)n(CCC(=O)O)c(=O)n2Cc2ccc(Cl)cc2)ccc1CC(C)C [Compound I-1355],0.177 µM,–,–
CC(C)=Cc1ccc(/N=c2\[nH]c(=O)n(C[C@H](C)C(=O)O)c(=O)n2Cc2ccc(Cl)cc2)cc1C [Compound I-0950],–,–,IC50 [1]: 0.02 µM
Cc1ccc(Cn2c(=O)n(C)c(=O)[nH]/c2=N\c2ccc(Oc3ccc(C(=O)O)cc3)cc2)cc1 [Compound I-2061],0.148 µM,–,–
CC[C@@H](C)Oc1ccc(/N=c2\[nH]c(=O)n(C[C@H](C)C(=O)O)c(=O)n2Cc2ccc(Cl)cc2)cc1 [Compound I-0754],0.016 µM,–,–
Cc1ccc(Cn2c(=O)n(C[C@H](C)C(=O)O)c(=O)[nH]/c2=N\c2ccc3nc(C)sc3c2)cc1 [Compound I-1473],0.012 µM,–,–
CCOc1ccc(/N=c2\[nH]c(=O)n([C@H](C)CC(=O)OC)c(=O)n2Cc2ccc(C)cc2)cc1Cl [Compound I-0876],–,0.023 µM,–
O=c1[nH]/c(=N\c2ccc3nc(C(F)(F)F)sc3c2)n(Cc2ccc(Cl)cc2)c(=O)n1C[C@H](O)CO [Compound I-2168],0.057 µM,–,–
Cc1cc(/N=c2\[nH]c(=O)n(CC3(C(=O)O)COC3)c(=O)n2Cc2ccc(Cl)cc2)ccc1OC(C)C [Compound I-1481],–,0.039 µM,–
CCn1c(=O)[nH]/c(=N\c2ccc(Oc3ncc(C(=O)O)s3)cc2)n(Cc2ccc(F)cc2)c1=O [Compound I-2567],–,0.038 µM,–
Cc1cc(/N=c2\[nH]c(=O)n(Cc3cc(C(=O)O)no3)c(=O)n2Cc2ccc(Cl)cc2)ccc1OC(C)C [Compound I-0802],0.021 µM,–,–
CCn1c(=O)[nH]/c(=N\c2ccc(Oc3ccc(C(=O)OC)nc3)cc2)n(Cc2ccc(Cl)cc2)c1=O [Compound I-2105],0.001 µM,–,–
C[C@@H](C(=O)O)[C@H](C)n1c(=O)[nH]/c(=N\c2ccc3oc(-c4ccncc4)nc3c2)n(Cc2ccc(Cl)cc2)c1=O [Compound I-1816],–,–,IC50 [1]: 0.3 µM
CO/N=C(\Cn1c(=O)[nH]/c(=N\c2ccc(OC(C)C)c(C)c2)n(Cc2ccc(Cl)cc2)c1=O)C(=O)O [Compound I-0756],0.131 µM,–,–
COc1cc(/N=c2\[nH]c(=O)n(CC3COC(C)(C)OC3)c(=O)n2Cc2ccc(Cl)cc2)ccc1OC(C)C [Compound I-1984],0.009 µM,–,–
CCn1c(=O)[nH]/c(=N\c2ccc(Oc3cncc(C(=O)OC)n3)cc2)n(Cc2ccc(C)cc2)c1=O [Compound I-2467],–,0.007 µM,–
O=C(O)CCn1c(=O)[nH]/c(=N\c2ccc(Oc3ccc(O)nc3)cc2)n(Cc2ccc(Cl)cc2)c1=O [Compound I-1535],–,0.028 µM,–
C[C@@H](C(=O)O)[C@H](C)n1c(=O)[nH]/c(=N\c2ccc(OCC3CC3)cc2)n(Cc2ccc(Cl)cc2)c1=O [Compound I-0921],–,–,IC50 [1]: 0.03 µM
CC(C)Oc1ccc(/N=c2\[nH]c(=O)n(CC(=O)NS(C)(=O)=O)c(=O)n2Cc2ccc(Cl)cc2)cc1Cl [Compound I-1876],–,–,IC50 [1]: 0.035 µM

# Reference: US9718790B2, “Triazine derivative and pharmaceutical composition having an analgesic activity comprising the same” (SHIONOGI & CO., LTD., priority 2010, dated 2017)
